Experimental data taken from ChEMBL document CHEMBL4118193, “1,2,3,4,6-Penta-O-galloyl-β-d-glucose suppresses colon cancer through induction of tumor suppressor” (Bioorg Med Chem Lett, 2018).
Active and inactive are the calls of the source. The rule behind the calls is not given here.

Key:
[1] = system: HT-29; assay: Cytotoxicity against human HT-29 cells at 10 uM after 48 hrs by CytoTox-96 non-radioactive assay; format: functional, cell-based
[2] = system: HCT-116; assay: Antiproliferative activity against human HCT116 cells at 1 to 10 uM after 48 hrs by CytoTox-96 non-radioactive assay; format: functional, cell-based
[3] = system: HCT-116; assay: Cell cycle arrest in human HCT116 cells assessed as accumulation at S phase at 1 uM after 48 hrs (reference value: 10.9%); format: functional
[4] = system: HCT-116; assay: Cell cycle arrest in human HCT116 cells assessed as accumulation at S phase at 2.5 uM after 48 hrs (reference value: 10.9%); format: functional
[5] = system: HCT-116; assay: Cell cycle arrest in human HCT116 cells assessed as accumulation at G2/M phase at 5 uM after 48 hrs (reference value: 21.5%); format: functional
[6] = system: HT-29; assay: Cell cycle arrest in human HT-29 cells assessed as accumulation at G0/G1 phase at 10 uM after 48 hrs (reference value: 53.9%); format: functional
[7] = system: HT-29; assay: Cell cycle arrest in human HT-29 cells assessed as accumulation at S phase at 1 uM after 48 hrs (reference value: 9.7%); format: functional
[8] = system: HT-29; assay: Cell cycle arrest in human HT-29 cells assessed as accumulation at S phase at 2.5 uM after 48 hrs (reference value: 9.7%); format: functional
[9] = system: HT-29; assay: Cell cycle arrest in human HT-29 cells assessed as accumulation at S phase at 5 uM after 48 hrs (reference value: 9.7%); format: functional
[10] = system: HT-29; assay: Cell cycle arrest in human HT-29 cells assessed as accumulation at G2/M phase at 10 uM after 48 hrs (reference value: 14.7%); format: functional
[11] = system: HCT-116; assay: Cell cycle arrest in human HCT116 cells assessed as accumulation at subG1 phase after 48 hrs; format: functional, cell-based
[12] = system: HCT-116; assay: Induction of apoptosis in human HCT116 cells assessed as necrotic cells at 5 uM after 48 hrs by Annexin-V and dead cell assay (reference value: 0.10%); format: functional
[13] = system: HT-29; assay: Induction of apoptosis in human HT-29 cells assessed as DNA fragmentation at 1 to 10 uM after 48 hrs by ELISA; format: functional, cell-based
[14] = system: HCT-116; assay: Induction of apoptosis in human HCT116 cells assessed as p53 protein level at 1 uM after 48 hrs by Western blot method relative to beta-actin; format: functional
[15] = system: HCT-116; assay: Induction of apoptosis in human HCT116 cells assessed as in p53 protein level at 2.5 uM after 48 hrs by Western blot method relative to beta-actin; format: functional
[16] = system: HCT-116; assay: Induction of apoptosis in human HCT116 cells assessed as in p53 protein level at 10 uM after 48 hrs by Western blot method relative to beta-actin; format: functional
[17] = system: HCT-116; assay: Induction of apoptosis in human HCT116 cells assessed as p21 protein level at 2.5 uM after 48 hrs by Western blot method relative to beta-actin; format: functional
[18] = system: HCT-116; assay: Induction of apoptosis in human HCT116 cells assessed as in p21 protein level at 5 uM after 48 hrs by Western blot method relative to beta-actin; format: functional
[19] = system: HCT-116; assay: Induction of apoptosis in human HCT116 cells assessed as p21 protein level at 10 uM after 48 hrs by Western blot method relative to beta-actin; format: functional
[20] = system: HCT-116; assay: Induction of apoptosis in human HCT116 cells assessed as cyclin E protein level at 1 uM after 48 hrs by Western blot method relative to beta-actin; format: functional
[21] = system: HCT-116; assay: Induction of apoptosis in human HCT116 cells assessed as CDK2 protein level at 1 uM after 48 hrs by Western blot method relative to beta-actin; format: functional
[22] = system: HCT-116; assay: Induction of apoptosis in human HCT116 cells assessed as CDK2 protein level at 5 uM after 48 hrs by Western blot method relative to beta-actin; format: functional
[23] = system: HCT-116; assay: Induction of apoptosis in human HCT116 cells assessed as Bcl-2 protein level at 1 uM after 48 hrs by Western blot method relative to beta-actin; format: functional
[24] = system: HCT-116; assay: Induction of apoptosis in human HCT116 cells assessed as Bcl-2 protein level at 2.5 uM after 48 hrs by Western blot method relative to beta-actin; format: functional
[25] = system: HCT-116; assay: Induction of apoptosis in human HCT116 cells assessed as Bcl-2 protein level at 5 uM after 48 hrs by Western blot method relative to beta-actin; format: functional
[26] = system: HCT-116; assay: Induction of apoptosis in human HCT116 cells assessed as cleaved caspase-3 protein level at 5 uM after 48 hrs by Western blot method relative to caspase-3; format: functional
[27] = system: HCT-116; assay: Induction of apoptosis in human HCT116 cells assessed as cleaved caspase-3 protein level at 10 uM after 48 hrs by Western blot method relative to caspase-3; format: functional
[28] = system: HCT-116; assay: Induction of apoptosis in human HCT116 cells assessed as caspase-3 protein level at 5 uM after 48 hrs by Western blot method relative to beta-actin; format: functional
[29] = system: HT-29; assay: Induction of apoptosis in human HT-29 cells assessed as in p53 protein level at 2.5 uM after 48 hrs by Western blot method relative to beta-actin; format: functional
[30] = system: HT-29; assay: Induction of apoptosis in human HT-29 cells assessed as in p53 protein level at 10 uM after 48 hrs by Western blot method relative to beta-actin; format: functional
[31] = system: HT-29; assay: Induction of apoptosis in human HT-29 cells assessed as in p21 protein level at 5 uM after 48 hrs by Western blot method relative to beta-actin; format: functional
[32] = system: HT-29; assay: Induction of apoptosis in human HT-29 cells assessed as cyclin E protein level at 1 uM after 48 hrs by Western blot method relative to beta-actin; format: functional
[33] = system: HT-29; assay: Induction of apoptosis in human HT-29 cells assessed as cyclin E protein level at 10 uM after 48 hrs by Western blot method relative to beta-actin; format: functional
[34] = system: HT-29; assay: Induction of apoptosis in human HT-29 cells assessed as CDK2 protein level at 2.5 uM after 48 hrs by Western blot method relative to beta-actin; format: functional
[35] = system: HT-29; assay: Induction of apoptosis in human HT-29 cells assessed as CDK2 protein level at 5 uM after 48 hrs by Western blot method relative to beta-actin; format: functional
[36] = system: HT-29; assay: Induction of apoptosis in human HT-29 cells assessed as Bcl-2 protein level at 2.5 uM after 48 hrs by Western blot method relative to beta-actin; format: functional
[37] = system: HT-29; assay: Induction of apoptosis in human HT-29 cells assessed as cleaved caspase-3 protein level at 1 uM after 48 hrs by Western blot method relative to caspase-3; format: functional
[38] = system: HT-29; assay: Induction of apoptosis in human HT-29 cells assessed as cleaved caspase-3 protein level at 5 uM after 48 hrs by Western blot method relative to caspase-3; format: functional
[39] = system: HT-29; assay: Induction of apoptosis in human HT-29 cells assessed as caspase-3 protein level at 10 uM after 48 hrs by Western blot method relative to beta-actin; format: functional
[40] = system: HT-29; assay: Induction of apoptosis in human HT-29 cells assessed as increase in caspase-3/7 activity at 1 to 10 uM measured after 48 hrs by Caspase-Glo 3/7 assay; format: functional, cell-based
[41] = system: HT-29; assay: Cytotoxicity against human HT-29 cells assessed as reduction in cell viability by MTT assay; format: functional, cell-based

O=C(OC[C@H]1O[C@@H](OC(=O)c2cc(O)c(O)c(O)c2)[C@H](OC(=O)c2cc(O)c(O)c(O)c2)[C@@H](OC(=O)c2cc(O)c(O)c(O)c2)[C@@H]1OC(=O)c1cc(O)c(O)c(O)c1)c1cc(O)c(O)c(O)c1 [PENTAGALLOYL GLUCOSE]
Activity [1]: Active
Activity [2]: Active
Activity [3]: 9.8%
Activity [4]: 9%
Activity [5]: 20.9%
Activity [6]: 37.3%
Activity [7]: 12.7%
Activity [8]: 13.4%
Activity [9]: 14.3%
Activity [10]: 11.7%
Activity [11]: Dose-dependent effect
Activity [12]: 0.45%
Activity [13]: Active
fold change (FC) [14]: 1.8
fold change (FC) [15]: 2.5
fold change (FC) [16]: 8.1
fold change (FC) [17]: 1.4
fold change (FC) [18]: 0.7
fold change (FC) [19]: 1.6
fold change (FC) [20]: 1.8
fold change (FC) [21]: 0.9
fold change (FC) [22]: 0.4
fold change (FC) [23]: 1.3
fold change (FC) [24]: 1.8
fold change (FC) [25]: 1.2
fold change (FC) [26]: 2
fold change (FC) [27]: 1.7
fold change (FC) [28]: 309.9
fold change (FC) [29]: 4.4
fold change (FC) [30]: 6
fold change (FC) [31]: 1.8
fold change (FC) [32]: 1.2
fold change (FC) [33]: 0.1
fold change (FC) [34]: 0.9
fold change (FC) [35]: 0.4
fold change (FC) [36]: 0.3
fold change (FC) [37]: 3
fold change (FC) [38]: 7
fold change (FC) [39]: 5.8
Activity [40]: Active
IC50 [41]: 4.46 µM
